Columns and labels:
[1] = test system: left atrial muscle; assay: Test Method 1: enhancement of contracting force of left atrial muscle extirpated from a guinea pig (electrically stimulated at 1 Hz); assay type: cell-based; conditions: Cavia porcellus, Krebs-Henseleit solution 32° C.; for EC20: read-out: EC20 (molar concentration for enhancing the left atrial muscle contracting force to the level of 20%); for EC50: read-out: EC50 (molar concentration for enhancing the left atrial muscle contracting force to the level of 50%); for EC100: read-out: EC100 (molar concentration for enhancing the left atrial muscle contracting force to the level of 100%)
[2] = test system: heart muscle; assay: Test Method 2: effect on heart muscle contracting force in an anesthetized dog (LV-dP/dtmax); assay type: in vivo; conditions: anesthetized Beagle dogs, 1 mg/kg through a cannula inserted into vein; increasing rate, value at initiation set as 100%
Method: The compounds according to the present invention was evaluated with reference to the effect on heart muscle contracting force by means of a method using an anesthetized dog.
Beagle dogs having a body weight of 8-11 kg were used for the experiment. They were anesthetized by intraperitoneal administration of a sodium salt of pentobarbital (35 mg/kg) and, if necessary, of additional small amount of the sodium salt of pentobarbital. Anesthesia was maintained by administering the sodium salt of pentobarbital in a dose of 5 mg/kg/hour through a cannula inserted within a vein. Breathing was performed through a cannula inserted within a trachea with a respirator. The maximum accelerations of contracting the […] (LV-dp/dtmax) were measured with a pressure transducer inserted into the left ventricle. Compounds tested was administered in a dose of 1 mg/kg through a cannula inserted into the other vein. The parameters were expressed as the increasing rate (Δ%) after dosing of the drug with the value at the initiation when the drug was administered being set as 100%.

[3] = test system: right atrial muscle; assay: Test Method 1: enhancing rate of the pulsation of the right atrial muscle extirpated from a guinea pig; assay type: cell-based; conditions: for enhancing rate of the pulsation of the right atrial muscle (in parentheses under EC20) / enhancing rate of the pulsation of the right atrial muscle (in parentheses under EC50) / enhancing rate of the pulsation of the right atrial muscle (in parentheses under EC100): minus values: pulsation is decreased
Method: The drug according to the present invention was evaluated with reference to the physiological activities by means of a method using an atrial muscle extirpated from a guinea pig.
Male guinea pigs having a body weight of 300-500 g were made swooned by striking his head and were bleeded to death. The heart was extirpated and the right and left atrial muscles were cut off. The tops of each atrial muscle were fixed with cerrefines. The muscle was suspended into an organ-bath in which a Krebs-Henseleit solution (at 32° C.) was filled, and a 95% O2 -5% CO2 gas was flown through the bath. The left atrial muscle was stimulated electrically at a frequency of 1 Hz to stabilize the contracting force of the left atrial muscle. Then, the compounds according to the present invention represented by the general formulae were added to the organ-bath. As for the right atrial muscle, after the pulsation was stabilized, the compounds according to the present invention were added in the organ-bath in the same manner as described above.
The compounds according to the present invention represented by the aforementioned general formulae enhanced the left atrial muscle contracting force dependent on their concentrations. The drug concentrations for enhancing the left atrial muscle contracting force to the levels of 20%, 50% and 100%, respectively are listed in Table 2. EC20, EC50 and EC100 indicate the molar concentration for enhancing the left atrial muscle contracting force to the levels of 20%, 50% and 100%, respectively. The enhancing rates of the pulsation of the right atrial muscle are also listed within parentheses. The minus values in parentheses indicate that the pulsation of the right atrial muscle is decreased.
As a control drug, theophylline ([…].

SMILES | EC50 [1] | enhancing rate of the pulsation of the right atrial muscle (in parentheses under EC50) [3] | EC20 [1] | ΔLV-dP/dtmax (%) [2] | enhancing rate of the pulsation of the right atrial muscle (in parentheses under EC20) [3] | EC100 [1] | enhancing rate of the pulsation of the right atrial muscle (in parentheses under EC100) [3] | effect on heart rate (in words) ([3]; from the results of Table 2)
CCOc1cc2[nH]c(C3CC3)cc(=O)c2cc1OC [Compound 98, 2-cyclopropyl-7-ethoxy-6-methoxy-4(1H)-quinolone] | 36.7 µM |  | 5.96 µM | 57.1% |  |  |  | 
COc1cc(C)c2[nH]ccc(=O)c2c1 [Compound 20, 6-methoxy-8-methyl-4(1H)-quinolone] | 58.9 µM | 1.8% | 12.4 µM | 41.7% | 0.2% | 299 µM | 5.6% | 
Cn1c(=O)c2[nH]cnc2n(C)c1=O [Theophylline, theophylline, reference compound] | 302 µM | 20.0% | 72.4 µM | 18.8% | 7.3% |  |  | increased significantly
COc1cc2c(=O)cc[nH]c2cc1OC(C)C [Compound 51, 7-i-propoxy-6-methoxy-4(1H)-quinolone] | 70.8 µM | 16.8% | 20 µM | 41.2% | 6.2% | 1000 µM | 16.5% | 

These reach a lower EC50 [1]. Values come first.

EC50 [1] | enhancing rate of the pulsation of the right atrial muscle (in parentheses under EC50) [3] | SMILES | EC20 [1] | ΔLV-dP/dtmax (%) [2] | enhancing rate of the pulsation of the right atrial muscle (in parentheses under EC20) [3] | EC100 [1] | enhancing rate of the pulsation of the right atrial muscle (in parentheses under EC100) [3] | effect on heart rate (in words) ([3]; from the results of Table 2)
18.2 µM | 16.3% | COc1cc2[nH]c(C3CC3)cc(=O)c2cc1OC [Compound 95, 2-cyclopropyl-6,7-dimethoxy-4(1H)-quinolone] | 1.78 µM | 46.9% | 2.8% | 94.4 µM |  | 
9.77 µM | -0.8% | CCOC(=O)c1cn(CC)c2ccc(CC)cc2c1=O [Compound 85, 1,6-diethyl-3-ethoxycarbonyl-4(1H)-quinolone] | 1.58 µM | 25.0% | -1.2% |  |  | 
30 µM |  | CCOc1cc2[nH]ccc(=O)c2cc1OC [Compound 62, 7-ethoxy-6-methoxy-4(1H)-quinolone] | 4.52 µM | 60.0% |  | 75 µM |  | 

Reference: US5081121A, “4(1H)-quinolone derivatives” (priority 1988, dated 1992)
